Assay results as given in US20240174634A1, “Aldehyde Dehydrogenase Inhibitors and Their Therapeutic Use” (priority 2020, published 2024).

Tests used:
ALDH1A1 = biological target: T1, ALDH1A1 (Homo sapiens, UniProt P00352); experiment: Selectivity biochemical assay, NAD(P)H-Glo Detection System
T1 construct: His-tag; made in house; host or cells: E. coli Rosetta (DE3)
T1 sequence (P00352 1-501): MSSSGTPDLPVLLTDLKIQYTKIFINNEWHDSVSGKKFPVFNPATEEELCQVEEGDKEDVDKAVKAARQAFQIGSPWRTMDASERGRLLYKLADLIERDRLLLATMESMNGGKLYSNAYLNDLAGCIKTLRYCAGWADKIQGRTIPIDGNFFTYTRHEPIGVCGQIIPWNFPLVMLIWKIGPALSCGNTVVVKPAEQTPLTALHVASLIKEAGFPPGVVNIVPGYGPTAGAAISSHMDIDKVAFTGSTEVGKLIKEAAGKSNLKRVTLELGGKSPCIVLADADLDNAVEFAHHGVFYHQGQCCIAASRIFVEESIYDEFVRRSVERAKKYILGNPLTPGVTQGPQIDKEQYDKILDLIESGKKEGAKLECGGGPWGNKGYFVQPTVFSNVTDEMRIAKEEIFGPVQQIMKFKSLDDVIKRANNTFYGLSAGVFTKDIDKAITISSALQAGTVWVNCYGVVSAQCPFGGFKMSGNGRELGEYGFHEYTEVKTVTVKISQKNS
Procedure, shortened: (§1)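 Recombinant full-length His-tagged human enzymes expressed in E. coli were pre-incubated 30 min at room temperature with compound (10-point, 3-fold series; top 20 μM for ALDH1A3, 250 μM for ALDH1A1/1A2). Propionaldehyde and NAD were then added at Km; NADH was read by NAD(P)H-Glo luminescence. Buffer: Tris (pH 7.6 for 1A1/1A2, 9.0 for 1A3), 1 mM TCEP, 0.01% Tween-20.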

ALDH1A2 = biological target: T2, ALDH1A2 (Homo sapiens, UniProt O94788); experiment: as above
T2 construct: His-tag; made in house; host or cells: E. coli Rosetta (DE3)
T2 sequence (O94788 1-518): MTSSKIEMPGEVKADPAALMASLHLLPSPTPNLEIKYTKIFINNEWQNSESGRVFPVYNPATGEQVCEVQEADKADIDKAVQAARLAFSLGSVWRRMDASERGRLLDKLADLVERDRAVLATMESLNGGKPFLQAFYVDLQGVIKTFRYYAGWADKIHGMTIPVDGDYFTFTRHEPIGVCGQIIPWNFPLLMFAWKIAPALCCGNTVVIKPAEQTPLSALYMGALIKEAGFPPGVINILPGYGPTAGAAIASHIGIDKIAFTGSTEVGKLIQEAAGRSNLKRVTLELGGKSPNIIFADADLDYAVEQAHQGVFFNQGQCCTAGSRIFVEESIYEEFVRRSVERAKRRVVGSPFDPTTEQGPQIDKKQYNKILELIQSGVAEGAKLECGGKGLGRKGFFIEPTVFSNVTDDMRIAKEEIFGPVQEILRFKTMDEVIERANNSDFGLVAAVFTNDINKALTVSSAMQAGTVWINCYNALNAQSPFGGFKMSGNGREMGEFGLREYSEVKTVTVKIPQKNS
Procedure, shortened: as §1

SMILES	IC50 (ALDH1A1) [µM]	IC50 (ALDH1A2) [µM]
O=C1CCc2cc(NC(=O)c3sc(N4CCOCC4)nc3-c3cccc(F)c3)ccc2N1 [ALDHI-1001, 4-(3-fluorophenyl)-2-morpholino-N-(2-oxo-3,4-dihydro-1H-quinolin-6-yl)thiazole-5-carboxamide]	≥ 100	≥ 100
CCn1cc(C2CCCN2CCOc2ccc3c(c2)CCC(=O)N3)cn1 (centres unmarked) [ALDHI-2016, 6-[2-[2-(1-ethylpyrazol-4-yl)pyrrolidin-1-yl]ethoxy]-3,4-dihydro-1H-quinolin-2-one]	≥ 100	≥ 100
Cc1ccc(C2CCCN2CCOc2ccc3c(c2)CCC(=O)N3)cn1 (centres unmarked) [ALDHI-2030, 6-[2-[2-(6-methyl-3-pyridyl)pyrrolidin-1-yl]ethoxy]-3,4-dihydro-1H-quinolin-2-one]	≥ 100	10 to 100
O=C1CCc2cc(NC(=O)c3ncsc3-c3cccc(F)c3)ccc2N1 [ALDHI-1014, 5-(3-fluorophenyl)-N-(2-oxo-3,4-dihydro-1H-quinolin-6-yl)thiazole-4-carboxamide]	≥ 100	10 to 100
O=C1CCc2cc(OCCN3CCCC3c3ccccc3F)ccc2N1 (centres unmarked) [ALDHI-2002, 6-[2-[2-(2-fluorophenyl)pyrrolidin-1-yl]ethoxy]-3,4-dihydro-1H-quinolin-2-one]	≥ 100	10 to 100
CC1(C)Oc2cc(OCCN3CCCC3c3cccc(F)c3)ccc2NC1=O (centres unmarked) [ALDHI-2043, 7-[2-[2-(3-fluorophenyl)pyrrolidin-1-yl]ethoxy]-2,2-dimethyl-4H-1,4-benzoxazin-3-one]	≥ 100	1 to 10
Cc1nc(C2CCCN2CCOc2ccc3c(c2)CCC(=O)N3)cs1 (centres unmarked) [ALDHI-2033, 6-[2-[2-(2-methylthiazol-4-yl)pyrrolidin-1-yl]ethoxy]-3,4-dihydro-1H-quinolin-2-one]	≥ 100	≥ 100
O=C1CCc2cc(OCCn3ccnc3-c3ccccc3)ccc2N1 [ALDHI-2041, 6-[2-(2-phenylimidazol-1-yl)ethoxy]-3,4-dihydro-1H-quinolin-2-one]	≥ 100	1 to 10
O=C1CSc2cc(OCCN3CCCC3c3cccc(F)c3)ccc2N1 (centres unmarked) [ALDHI-2008, 7-[2-[2-(3-fluorophenyl)pyrrolidin-1-yl]ethoxy]-4H-1,4-benzothiazin-3-one]	≥ 100	10 to 100
O=C1CCc2cc(NC(=O)c3sc(N4CCNCC4)nc3-c3cccc(F)c3)ccc2N1 [ALDHI-1005, 4-(3-fluorophenyl)-N-(2-oxo-3,4-dihydro-1H-quinolin-6-yl)-2-piperazin-1-yl-thiazole-5-carboxamide]	≥ 100	10 to 100
COc1cccc(C2CCCN2CCOc2ccc3c(c2)CCC(=O)N3)c1 (centres unmarked) [ALDHI-2034, 6-[2-[2-(3-methoxyphenyl)pyrrolidin-1-yl]ethoxy]-3,4-dihydro-1H-quinolin-2-one]	≥ 100	10 to 100
Cc1cccc(-c2ncsc2C(=O)Nc2ccc3c(c2)CCC(=O)N3)c1 [ALDHI-1013, 4-(m-tolyl)-N-(2-oxo-3,4-dihydro-1H-quinolin-6-yl)thiazole-5-carboxamide]	≥ 100	1 to 10
CC1(c2ccccc2)COCCN1CCOc1ccc2c(c1)CCC(=O)N2 (centres unmarked) [ALDHI-2040, 6-[2-(3-methyl-3-phenyl-morpholin-4-yl)ethoxy]-3,4-dihydro-1H-quinolin-2-one]	≥ 100	0.1 to 1
